PubChem BioAssay AID504944 (Broad Institute, 2011)
Active and inactive are the calls of the source. How the calls were made is not given here.

Tested on: not listed separately
Test: toxicity to human HeLa cells – cell-based, 48 h, plate reader, cherry-picks, set 2, cytotoxicity control, dose response (AID 504944)
Conditions: HeLa cytotoxicity, plate reader, 48 h; at 13.5 µM (top of the series)
For `COc1ccc(C2=C(C=O)Cc3ccccc3O2)cc1`, the activity change, negative = toxicity was 0.173% (inactive).

Same assay, conditions: HeLa cytotoxicity, plate reader, 48 h; at 38 µM (top of the series)
For `Cc1cc(C)nc(N(C#N)Cc2cccc([N+](=O)[O-])c2)n1`, the activity change, negative = toxicity was -8.51% (inactive).
With `N#CC(Sc1ccccn1)c1ccc(Cl)cc1` (centres undefined) the activity change, negative = toxicity was -11% (inactive).
With `COC(=O)c1cc(-c2ccc(OC)cc2)on1` the activity change, negative = toxicity was 4.16% (inactive).
With `CCOc1ccc(CNC2CCCc3ccccc32)cc1` (centres undefined) the activity change, negative = toxicity was -11.3% (inactive).
In the case of `CCOc1ccc(-n2cccc2C=O)cc1`, the activity change, negative = toxicity is reported as -8.05% (inactive).
For `CCCNS(=O)(=O)c1ccc(OC)c(Cl)c1Cl`, the activity change, negative = toxicity was -2.35% (inactive).
With `CSc1nnc(-c2ccc([N+](=O)[O-])cc2)o1` the activity change, negative = toxicity was -10.7% (inactive).
For `O=C(NC1CCS(=O)(=O)C1)c1cccc(Br)c1` (centres undefined), the activity change, negative = toxicity was -1.62% (inactive).
In the case of `N#CC(c1ccc(Cl)cc1)c1cccc(Cl)n1` (centres undefined), the activity change, negative = toxicity is reported as -6.14% (inactive).
In the case of `COC(=O)c1ccc(OC(=O)c2ccco2)cc1`, the activity change, negative = toxicity is reported as -11.8% (inactive).
With `CSC1=N/C(=C\C=C\c2cccs2)C(=O)S1` the activity change, negative = toxicity was -8.63% (inactive).
For `N#CC(c1ccc(Cl)nn1)c1ccc(Cl)cc1Cl` (centres undefined), the activity change, negative = toxicity was -7.39% (inactive).
With `N#CC(c1ccc(Cl)cc1)c1ncc(C(F)(F)F)cc1Cl` (centres undefined) the activity change, negative = toxicity was -15% (inactive).
With `N#CN(Cc1ccccc1)Cc1ccccc1` the activity change, negative = toxicity was 2.47% (inactive).
For `O=[N+]([O-])c1ccc(N2CCCCC2)cc1`, the activity change, negative = toxicity was -9.13% (inactive).
In the case of `O=C1C2C(C(=O)N1Cc1ccco1)C1C=CC2C12CC2` (centres undefined), the activity change, negative = toxicity is reported as -4.39% (inactive).
In the case of `COC(=O)c1ccc(OC(=O)c2cccs2)cc1`, the activity change, negative = toxicity is reported as -10.9% (inactive).
In the case of `O=C(NCC1CC1)c1cc([N+](=O)[O-])cc([N+](=O)[O-])c1`, the activity change, negative = toxicity is reported as 5.69% (inactive).
For `Clc1ccc2scc(CN3CCCCC3)c2c1`, the activity change, negative = toxicity was -2.59% (inactive).
With `COc1ccc(N=C(C)C2=C(O)CSC2=O)cc1` the activity change, negative = toxicity was 5.59% (inactive).
In the case of `COc1ccc(/C(C#N)=C/c2cccnc2)cc1`, the activity change, negative = toxicity is reported as -8.3% (inactive).
In the case of `N#Cc1cc(-c2ccccc2)cnc1Cl`, the activity change, negative = toxicity is reported as -4.08% (inactive).
For `Cc1cc(NC(=O)Nc2ccccc2[N+](=O)[O-])no1`, the activity change, negative = toxicity was -12.9% (inactive).
In the case of `Cc1cc(S(=O)(=O)NCC2CC2)c(Cl)cc1Cl`, the activity change, negative = toxicity is reported as -4.01% (inactive).
In the case of `Clc1cccc(CNCCCSc2ncccn2)c1`, the activity change, negative = toxicity is reported as -1.31% (inactive).
For `Clc1ccc2scc(CN3CCCC3)c2c1`, the activity change, negative = toxicity was -10.3% (inactive).
With `N#CC1C(C#N)C2CCC1C1C2N1c1ccccc1` (centres undefined) the activity change, negative = toxicity was -9.52% (inactive).
In the case of `CCC(C)NS(=O)(=O)c1ccc(OC)c(Cl)c1Cl` (centres undefined), the activity change, negative = toxicity is reported as -10.1% (inactive).
For `O=C(c1cccc([N+](=O)[O-])c1)N1CC2C3C=CC(C3)C2C1` (centres undefined), the activity change, negative = toxicity was -2.29% (inactive).
With `CCNC(=O)COc1ccc2ccccc2c1` the activity change, negative = toxicity was -6.43% (inactive).
With `Cc1ccc(S(=O)c2ccc(C)cc2)cc1` the activity change, negative = toxicity was -9.53% (inactive).
For `COC(=O)c1ccc(NC(=S)N2CCCC2)cc1`, the activity change, negative = toxicity was 0.525% (inactive).
For `Cc1cc(NC(=O)c2cc([N+](=O)[O-])cc([N+](=O)[O-])c2C)no1`, the activity change, negative = toxicity was -10.2% (inactive).
With `O=S1(=O)CCOC[C@H](c2ccccc2)N1Cc1cccc(Cl)c1` the activity change, negative = toxicity was -9.16% (inactive).
With `Cc1cccc(C(C#N)c2ccc(Cl)nn2)c1` (centres undefined) the activity change, negative = toxicity was -0.066% (inactive).
In the case of `CCOC(=O)CCCn1ncn2c(cc3occc32)c1=O`, the activity change, negative = toxicity is reported as -0.83% (inactive).
For `Cc1ccc(S(=O)(=O)NCCC(C)C)cc1[N+](=O)[O-]`, the activity change, negative = toxicity was -2.87% (inactive).
With `COC(=O)c1cc(-c2ccc(Br)cc2)on1` the activity change, negative = toxicity was -9.19% (inactive).
With `C#CCSc1ncc(-c2ccccc2)cn1` the activity change, negative = toxicity was -4.45% (inactive).
With `Cc1ccc(C(C#N)c2ccc(Cl)nn2)cc1` (centres undefined) the activity change, negative = toxicity was -10.6% (inactive).
In the case of `CCOC(=O)c1ccc(N2Cc3ccccc3C2=N)cc1`, the activity change, negative = toxicity is reported as -10.6% (inactive).
In the case of `COc1ccc(/C=C/C(=O)c2ccoc2)cc1`, the activity change, negative = toxicity is reported as -17.6% (inactive).
In the case of `CCOC(=O)c1ccc(-c2ccc(C=O)o2)cc1`, the activity change, negative = toxicity is reported as 0.584% (inactive).
In the case of `O=C(NC1CCCC1)c1cc(Cl)ccc1[N+](=O)[O-]`, the activity change, negative = toxicity is reported as -2.55% (inactive).
With `O=C1C=C(c2cccc(Cl)c2)C[C@@H](c2ccc(F)cc2)C1` the activity change, negative = toxicity was -19.4% (inactive).
With `CCOC(=O)CC(C#N)c1cn(C)c2ccccc12` (centres undefined) the activity change, negative = toxicity was -3.91% (inactive).
With `O=[N+]([O-])c1ccc(N2CCCC2)nc1` the activity change, negative = toxicity was -3.24% (inactive).
With `O=CN(c1ccccc1)c1ccc2ccccc2c1` the activity change, negative = toxicity was -5.5% (inactive).
In the case of `CCOC(=O)N1CCN(c2ccc(Cl)cc2)CC1`, the activity change, negative = toxicity is reported as 5.84% (inactive).
For `O=C1C2C3C=CC(C4CC34)C2C(=O)N1Cc1ccco1` (centres undefined), the activity change, negative = toxicity was -2.48% (inactive).
With `O=C1N[C@@H](Cc2ccccc2)[C@@H](c2ccco2)O1` the activity change, negative = toxicity was -3.87% (inactive).
In the case of `Cc1cc(C)nc(N(C#N)Cc2ccccc2)n1`, the activity change, negative = toxicity is reported as 2.63% (inactive).
With `CCOC(=O)c1ccc(-c2ccc(CO)o2)cc1` the activity change, negative = toxicity was -14.8% (inactive).
For `Cc1cccc(NC(=O)Nc2cc(C)on2)c1`, the activity change, negative = toxicity was -3.2% (inactive).
In the case of `Cn1cccc1C(C#N)c1ccccc1C#N` (centres undefined), the activity change, negative = toxicity is reported as -10.8% (inactive).
With `O=CNC1(c2ccccc2)CCCCC1` the activity change, negative = toxicity was -10.5% (inactive).
In the case of `O=C(NC1CCCCCCC1)c1cccc(Cl)c1`, the activity change, negative = toxicity is reported as -22.5% (inactive).
In the case of `Cn1cccc1C(C#N)c1cccc(F)c1C#N` (centres undefined), the activity change, negative = toxicity is reported as -11.4% (inactive).
In the case of `O=[N+]([O-])c1ccc(N2CCCCC2)nc1`, the activity change, negative = toxicity is reported as -0.44% (inactive).
With `O=C1C=C(c2cc(F)ccc2F)C[C@@H](c2ccc(F)cc2)C1` the activity change, negative = toxicity was -9.01% (inactive).
For `CC(C)N=C(NC#N)SCc1ccccc1F`, the activity change, negative = toxicity was 0.214% (inactive).
In the case of `O=[N+]([O-])c1ccc(-c2cccnc2)cc1`, the activity change, negative = toxicity is reported as -9.26% (inactive).
For `COc1ccc(CNCc2cccc(Cl)c2)cc1`, the activity change, negative = toxicity was 3.92% (inactive).
With `Cc1ccc2scc(CN3CCCC3)c2c1` the activity change, negative = toxicity was -3.48% (inactive).
With `CCOC(=O)c1cc2c(s1)-c1c(C)cccc1OC2` the activity change, negative = toxicity was -10.8% (inactive).
In the case of `C=CCOC(=O)c1ccc(-n2cnc(C)n2)nc1`, the activity change, negative = toxicity is reported as -2.17% (inactive).
For `N#CC(c1ccccc1)c1cccc(Cl)n1` (centres undefined), the activity change, negative = toxicity was 1.47% (inactive).
With `N#CCn1c(C2CCCCC2)nc2ccccc2c1=O` the activity change, negative = toxicity was 0.099% (inactive).
With `Nc1ccc(OCc2ccccc2)cc1[N+](=O)[O-]` the activity change, negative = toxicity was -5.72% (inactive).
For `OC(c1cccc(Cl)c1)c1nccc2ccccc12` (centres undefined), the activity change, negative = toxicity was -10.8% (inactive).
For `N#CC(c1cccc(Cl)c1)c1ncc(C(F)(F)F)cc1Cl` (centres undefined), the activity change, negative = toxicity was -12.5% (inactive).
With `Cc1cc(NC(=O)c2c(F)c(F)c(F)c(F)c2F)no1` the activity change, negative = toxicity was -10.1% (inactive).
With `CC(C)CCNC(=O)c1cccc(Cl)c1` the activity change, negative = toxicity was -10.7% (inactive).
With `COc1ccccc1C(C#N)c1cccc(Cl)n1` (centres undefined) the activity change, negative = toxicity was -0.092% (inactive).
With `Cc1ccc(C)c(S(=O)(=O)NC2CCSC2=O)c1` (centres undefined) the activity change, negative = toxicity was -5.62% (inactive).
For `Cn1cccc1C(=O)OCc1cc(-c2ccco2)on1`, the activity change, negative = toxicity was 0.43% (inactive).
With `N#CC(c1ccc(Cl)cc1)c1ccc(Cl)nn1` (centres undefined) the activity change, negative = toxicity was -11% (inactive).
In the case of `N#CC(c1ccc(Cl)nn1)c1ccccc1Cl` (centres undefined), the activity change, negative = toxicity is reported as -3.51% (inactive).
For `COc1ccc(N2CCN(C(=O)c3ccc(Br)o3)CC2)cc1`, the activity change, negative = toxicity was -5.84% (inactive).
With `O=C(NC1CCCC1)c1cccc(Cl)c1` the activity change, negative = toxicity was 2.48% (inactive).
In the case of `CCOC1=CC(=O)OC(c2ccccc2)C1` (centres undefined), the activity change, negative = toxicity is reported as -12.2% (inactive).
In the case of `COc1ccc(C(C#N)c2ccc(Cl)nn2)cc1` (centres undefined), the activity change, negative = toxicity is reported as 8.42% (inactive).
In the case of `N#CC(c1ccc(Cl)nn1)c1c(F)cccc1Cl` (centres undefined), the activity change, negative = toxicity is reported as -4.99% (inactive).
With `CC(C)(C)NC(=O)c1cc(Cl)ccc1[N+](=O)[O-]` the activity change, negative = toxicity was -2.21% (inactive).
For `CCCCCC1CC(COc2ccccc2)OC1=O` (centres undefined), the activity change, negative = toxicity was -3.8% (inactive).

Tested on: HeLa cytotoxicity, plate reader, 48 h
Test: as above
Conditions: not given
Work on `CO/N=C/c1cn(-c2ccc(Cl)cc2)nn1` yielded an AC50 of 22.3 µM.
Compound `O=CC1=C(c2ccccc2)Oc2ccccc2O1` has an AC50 of 20.6 µM.
With `Cc1cc(NC(=O)c2cc([N+](=O)[O-])ccc2Cl)no1` the AC50 was 29.1 µM.
`COC(=O)c1ccc(/C=C(\C#N)c2ccccn2)cc1` showed an AC50 of 29 µM.
Compound `CCOC(=O)/C=C(\C)Sc1cc(=O)oc2ccccc12` has an AC50 of 23.9 µM.
In the case of `O=C(Nc1ncc([N+](=O)[O-])s1)c1cccc([N+](=O)[O-])c1`, the AC50 is reported as 14.3 µM.
In the case of `Cc1ccc2nc(-c3ccc4c(c3)OCCO4)cn2c1`, the AC50 is reported as 22.3 µM.
In the case of `N#C/C(=C/c1ccco1)c1nc2ccccc2s1`, the AC50 is reported as 24.4 µM.
